The source of these data is patent publication US20200376007A1, “THERAPEUTIC COMPOUNDS AND METHODS OF USE THEREOF” (REGENTS OF THE UNIVERSITY OF MINNESOTA, priority 2019, published 2020).

For orientation: EC50 means the concentration needed to bring the measured effect to its halfway point.

This experiment deals with T1, human TGR5 receptor (Homo sapiens, UniProt Q8TDU6).
T1 construct: expressed in transfected cells
T1 sequence (Q8TDU6 1-330): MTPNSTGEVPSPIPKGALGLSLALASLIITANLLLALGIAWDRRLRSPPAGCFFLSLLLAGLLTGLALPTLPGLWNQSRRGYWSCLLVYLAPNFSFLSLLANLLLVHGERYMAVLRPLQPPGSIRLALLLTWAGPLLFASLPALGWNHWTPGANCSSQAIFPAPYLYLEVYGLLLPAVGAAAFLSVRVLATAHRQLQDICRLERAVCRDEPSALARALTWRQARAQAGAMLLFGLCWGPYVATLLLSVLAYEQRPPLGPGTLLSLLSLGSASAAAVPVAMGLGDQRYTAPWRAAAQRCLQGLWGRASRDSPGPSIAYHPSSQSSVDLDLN
Nature of the experiment: TGR5 cAMP assay. The note with it: TGR5 agonist activity; cAMP production in a recombinant cell line expressing human TGR5 receptor. It is filed as cell-based. Here is the method:
TGR5 agonist activity was evaluated by assaying cAMP production in a recombinant cell line expressing human TGR5 receptor.
On to `COCCOCCNC(=O)CC[C@@H](C)[C@H]1CC[C@H]2[C@@H]3[C@H](OC)C[C@@H]4C[C@H](O)CC[C@]4(C)[C@H]3CC[C@]12C` [Example 4, (R)-4-((3R,5S,7R,8R,9S,10S,13R,14S,17R)-3-hydroxy-7-methoxy-10,13-dimethylhexadecahydro-1H-cyclopenta[a]phenanthren-17-yl)-N-(2-(2-methoxyethoxy)ethyl)pentanamide], for which the EC50 was determined as 49.5 nM.

For `CO[C@@H]1C[C@@H]2C[C@H](O)CC[C@]2(C)[C@H]2CC[C@]3(C)[C@@H]([C@H](C)CCC(=O)O)CC[C@H]3[C@H]12` [Example 3, (R)-4-((3R,5S,7R,8R,9S,10S,13R,14S,17R)-3-hydroxy-7-methoxy-10,13-dimethylhexadecahydro-1H-cyclopenta[a]phenanthren-17-yl)pentanoic acid], the EC50 came out at 74.9 nM.

On to `CO[C@@H]1C[C@@H]2C[C@H](O)CC[C@]2(C)[C@H]2CC[C@]3(C)[C@@H]([C@H](C)CCC(=O)NC[C@H](O)[C@@H](O)[C@H](O)[C@H](O)CO)CC[C@H]3[C@H]12` [Example 6, (R)-4-((3R,5S,7R,8R,9S,10S,13R,14S,17R)-3-hydroxy-7-methoxy-10,13-dimethylhexadecahydro-1H-cyclopenta[a]phenanthren-17-yl)-N-((2S,3R,4R,5R)-2,3,4,5,6-pentahydroxyhexyl)pentanamide], for which the EC50 stood at 27.7 nM.

As to `COCc1nnc(CC[C@@H](C)[C@H]2CC[C@H]3[C@@H]4[C@H](OC)C[C@@H]5C[C@H](O)CC[C@]5(C)[C@H]4CC[C@]23C)o1` [Example 5, (3R,5S,7R,8R,9S,10S,13R,14S,17R)-7-methoxy-17-((R)-4-(5-(methoxymethyl)-1,3,4-oxadiazol-2-yl)butan-2-yl)-10,13-dimethylhexadecahydro-1-cyclopenta[a]phenanthren-3-ol], the EC50 was found to be 22.6 nM.

`CO[C@@H]1C[C@@H]2C[C@H](O)CC[C@]2(C)[C@H]2CC[C@]3(C)[C@@H]([C@H](C)CCC(=O)N(C)C[C@H](O)[C@@H](O)[C@H](O)[C@H](O)CO)CC[C@H]3[C@H]12` [Example 7, (R)-4-((3R,5S,7R,8R,9S,10S,13R,14S,17R)-3-hydroxy-7-methoxy-10,13-dimethylhexadecahydro-1H-cyclopenta[a]phenanthren-17-yl)-N-methyl-N-((2S,3R,4R,5R)-2,3,4,5,6-pentahydroxyhexyl)pentanamide]: the EC50 was determined as 60.1 nM.
